Measured values from article PMC11312998, “Molecular Pro-Apoptotic Activities of Flavanone Derivatives in Cyclodextrin Complexes: New Implications for Anticancer Therapy” (International Journal of Molecular Sciences, 2024).

Columns and labels:
Assay type in all cases: cell-based, human
Settings in all cases: IC50 concentration, 24 h
Ishikawa = assay: Plasma membrane fluidity, TMA-DPH fluorescence anisotropy
Method: (§1) Changes in plasma membrane fluidity were determined by fluorescence spectroscopy and two fluorescent probes located at different depths of the lipid bilayer: TMA-DPH ((1-(4-Trimethylammoniumphenyl)-6-Phenyl-1,3,5-Hexatriene p-Toluene sulfonate, Sigma-Aldrich; St. Louis, MO, USA) and DAUDA (11-[5-(Dimethylamino)-1-naphthalenesulfonylamino] undecanoic acid, Sigma-Aldrich, St. Louis, MO, USA). TMA-DPH is incorporated in the superficial area of the outer monolayer, while DAUDA penetrates into the deeper hydrophobic area of the membrane. The fluorescence of the probes was measured on a Perkin-Elmer spectrofluorometer (Waltham, MA, USA) with an attachment for measuring fluorescence anisotropy with parallel and perpendicular positions of the polarizers.
(§2) Cells were seeded on sterile 35 mm dishes in numbers appropriate for a given cell line. […] After 24 h incubation, the cells were trypsinized and transferred to Eppendorf tubes (0.5 mL of suspension/sample). The cell suspension was centrifuged at 2500 rpm for 5 min at 4 °C. […] Fluorescence measurements were made on a Perkin-Elmer LS-5B spectrofluorometer (MA, USA) in an attachment with a polarizer, reading the fluorescence anisotropy at an excitation wavelength λex = 365 nm and emission wavelength λem = 425 nm (TMA-DPH), as well as excitation wavelength λex = 350 nm and emission wavelength λem = 420 nm (DAUDA).

HCC38 = assay: Nitric oxide (RNS) generation, DAF-FM diacetate probe
Method: (§3) Diaminofluorescein-FM diacetate (DAF-FM diacetate, Invitrogen, Carlsbad, CA, USA), is a widely employed cell permeant fluorescent reagent for the detection and quantification of reactive nitrogen species (RNS), particularly nitric oxide (NO). […] However, upon reaction with NO, it undergoes a transformation that yields a highly fluorescent benzotriazole derivative (excitation/emission maxima: λex = 495, λem = 515 nm).
(§4) The cells were seeded in black 96-well fluorometric microplates at a density of 10 × 10^3 cells per well. […] After incubation with the compounds, the medium was removed, the cell monolayer in the wells was washed twice with HBSS (140 mM NaCl, 5 mM KCl, 0.8 mM MgCl2, 1.8 mM CaCl2, 1 mM Na2HPO4, 10 mM HEPES and 1% glucose) and 50 μL of DAF-FM diacetate solution in HBSS was added to each well (final probe concentration 5 μmol/L). Cells were incubated with the probe for 30 min in the dark in an incubator (37 °C). After incubation, the probe was removed and replaced with fresh HBSS buffer and then incubated for an additional 30 min to allow for complete de-esterification of the intra cellular diacetates. After this time, the fluorescence was measured. The measurement was performed at the following excitation and fluorescence emission wavelengths: λex = 495 nm/λem = 515 nm. Fluorescence was measured on a Perkin-Elmer LS-5B spectrofluorometer (MA, USA). Fluorescence intensity values for control cells were arbitrarily set as 100%. The results are presented as percentages of control cells calculated on the basis of a comparison of the fluorescence intensity ratio of test samples and controls (100%) (fluorescence of samples was calculated as Δf in relation to the control).

Hec-1-A [1] = assay: as above
Method: as §3, §4

Hec-1-A [2] = assay: Plasma membrane fluidity, TMA-DPH fluorescence anisotropy
Method: as §1, §2

For `O=C1/C(=C/c2ccccc2)C(c2ccccc2)Oc2ccccc21` (stereo not shown) [Compound 5], the “increase in cell membrane fluidity (TMA-DPH)” value (Ishikawa) was “approximately 20%”.

In the case of `O=C1/C(=C/c2ccccc2)COc2ccccc21` [Compound 1], the “increase in nitric oxide production (DAF-FM)” value (HCC38) is reported as “approximately 15%” and the “increase in nitric oxide production (DAF-FM)” value (Hec-1-A [1]) is reported as “approximately 20%”.

With `COc1cccc(/C=C2/C(=O)c3ccccc3OC2c2ccccc2)c1` (stereo not shown) [Compound 3] the “increase in cell membrane fluidity (TMA-DPH)” value (Hec-1-A [2]) was “approximately 20%”.
